In patent US20250127165A1, “USE OF 2-AMINO-3-PHENYLBUTYRIC ACID OR 2,6-DIAMINO-3-METHYLHEXANOIC ACID AS PLANT IMMUNE RESISTANCE INDUCER” (NANJING TIANNONG BIOTECHNOLOGY CO., LTD., priority 2021, published 2025):

Experiments:
[1] = test system: Arabidopsis thaliana; test: Induced resistance of Arabidopsis thaliana to high temperature stress; format: in vivo; details: for heat injury index (%): 45° C. 12 h, 7 days recovery; for PIABS (photosynthetic performance index): after 45° C. for 12 h
Method: 2-amino-3-phenylbutyric acid was dissolved in distilled water and then gradiently diluted with distilled water into solutions of 100 nM, 1,000 nM, and 10,000 nM, and a blank control was set up, while 0.02% Tween 20 was added as surfactant. Four groups of replicates were set up for each concentration, and set up a blank control at room temperature. Arabidopsis thaliana seeds were planted in a pot with a diameter of 8.5 cm at about 50 seeds per pot, and grown in a greenhouse at a temperature of 22° C., a humidity of 60%-70%, and a light intensity of 100 μmol m^−2s^−1 (16 h light/8 h darkness). The treatment was initiated at the 21 d of seedling stage of Arabidopsis thaliana by spraying 2-amino-3-phenylbutyric acid solution on the leaf surface, and spraying twice within 24 hours. 24 hours after the second treatment, the plants were transferred to a light incubator at a temperature of 45° C. for high temperature stress treatment. After 12 h of treatment, they were treated in the dark at room temperature for 30 min, and then the chlorophyll fluorescence of the Arabidopsis thaliana leaves was measured with Plant Efficiency Handy PEA. Then, the plants were removed and transferred to a greenhouse at 25° C. for 7 days for recovery. The injured conditions of the plants were observed and the grade of hot injury was calculated, where the grading standard of heat injury is shown in Table 1, and the formula for calculating the heat injury index is as follows.
The concentrations of 2,6-diamino-3-methylhexanoic acid used in this trail are 0, 1, 10, 100 and 1,000 nM, and 0.02% Tween 20 is added as a surfactant. Four groups of replicates were set up. Other methods were the same as 2-amino-3-phenylbutyric acid, and the effect of 2,6-diamino-3-methylhexanoic acid to induce the resistance of Arabidopsis thaliana to high temperature stress was investigated.

[2] = test system: lysine monooxygenase; details: Ohnishi et al., 1976; cited from earlier work
[3] = test system: ryegrass; test: Induced resistance of ryegrass to high temperature stress; format: in vivo; details: for heat injury index (%): 45° C. 12 h, 7 days recovery
Method: 2,6-diamino-3-methylhexanoic acid was dissolved in distilled water and then gradiently diluted with distilled water into solutions of 1 nM, 10 nM, 100 nM, and 1,000 nM, and a blank control was set up, while 0.02% Tween 20 was added as surfactant. Four groups of replicates were set up for each concentration, and set up a blank control at room temperature. Ryegrass seeds were weighed and planted in a pot with a diameter of 8.5 cm at 0.8 g per pot, and transferred to a greenhouse with a temperature of 25° C., a humidity of 60%-70%, and a light intensity of 200 μmol m^−2s^−1 (12 h light/12 h darkness). After 7 days of growth, ryegrass was treated by spraying 2,6-diamino-3-methylhexanoic acid solution on the leaf surface, and spraying twice within 24 hours. 24 hours after the second spray, the plants were transferred to a light incubator at 45° C. for high temperature stress treatment. After 12 hours of treatment, they were removed and transferred to a greenhouse at 25° C. for 7 days for recovery. The injured conditions of the plants were observed and the grade of hot injury was calculated, where the grading standard of heat injury is shown in Table 8, and the formula for calculating the heat injury index is as follows.

[4] = test system: wheat powdery mildew; test: Field trial of induced resistance of wheat to powdery mildew; format: in vivo; details: 1,000 nM, field spray
Method: A solution of 2-amino-3-phenylbutyric acid at a concentration of 1,000 nM (with 0.02% by volume of surfactant Tween 20) was sprayed onto the stems and leaves in the field. The treatment included spraying 0.02% by volume of surfactant Tween 20 as an auxiliary control, and Atailing (30 g/mu) as a positive control, with two replications per treatment. After the spray, the disease grade of wheat in each treatment group was investigated, and the morbidity degree was recorded according to the grading standard of wheat powdery in the “Pesticides-Guidelines for the Field Efficacy Trails” (I), and the disease index and the relative immunization effect were calculated in the same manner as those of tomato spotted wilt. After the harvested wheat seeds were dried, the thousand grain weight of wheat seeds from different treatments was measured.
Grading Standard of Wheat Powdery Mildew (per leaf): • Grade 1: The area of diseased spots accounts for 5% or less of the whole leaf area; • Grade 3: The area of diseased spots accounts for 6%-15% of the whole leaf; • Grade 5: The area of diseased spots accounts for 16%-25% of the whole leaf; • Grade 7: The area of diseased spots accounts for 26%-50% of the whole leaf; • Grade 9: The area of diseased spots accounts for 50% or more of the whole leaf area.

[5] = test system: Leuconostoc dextranicum; details: Edelson & Keeley, 1963; cited from earlier work
[6] = test system: arthritis in rats; details: 100 mg/kg and 200 mg/kg; Ren et al., 2019; cited from earlier work
[7] = 10,000 nM, versus untreated heat-stressed group

With `CC(CCCN)C(N)C(=O)O` (centres unmarked) [2,6-diamino-3-methylhexanoic acid] the “heat injury index (%)” value ([1]; 1 nM) was 49%, the “PIABS (photosynthetic performance index)” value ([1]; 1 nM) was 1.84 ± 0.02 e and the “heat injury index (%)” value ([1]; 10 nM) was 38%. The “PIABS (photosynthetic performance index)” value ([1]; 10 nM) was 3.58 ± 0.11 days, the “heat injury index (%)” value ([1]; 100 nM) was 29% and the “PIABS (photosynthetic performance index)” value ([1]; 100 nM) was 5.73 ± 0.17 c. The “increase of PIABS compared with the control group” value ([1]; 1,000 nM) was 36 fold, the “heat injury index (%)” value ([1]; 1,000 nM) was 9% and the “PIABS (photosynthetic performance index)” value ([1]; 1,000 nM) was 9.49 ± 0.14 b. For the same compound, the “decrease of heat injury index” value ([1]; 1,000 nM, versus untreated heat-stressed group) was 64%, the “substrate activity for lysine monooxygenase” value [2] was “no substrate activity” and the “heat injury index (%)” value ([3]; 1 nM) was 60%. For the same compound, the “heat injury index (%)” value ([3]; 10 nM) was 54%, the “heat injury index (%)” value ([3]; 100 nM) was 40% and the “decrease of heat injury index” value ([3]; 1,000 nM) was 69%. For the same compound, the “heat injury index (%)” value ([3]; 1,000 nM) was 22%.
With `CC(c1ccccc1)C(N)C(=O)O` (centres unmarked) [2-amino-3-phenylbutyric acid] the “heat injury index (%)” value ([1]; 100 nM) was 47%, the “PIABS (photosynthetic performance index)” value ([1]; 100 nM) was 26.13 ± 7.37 bc and the “heat injury index (%)” value ([1]; 1,000 nM) was 31%. For the same compound, the “PIABS (photosynthetic performance index)” value ([1]; 1,000 nM) was 27.27 ± 3.93 bc, the “heat injury index (%)” value ([1]; 10,000 nM) was 16% and the “PIABS (photosynthetic performance index)” value ([1]; 10,000 nM) was 33.40 ± 3.91 b. The “decrease of heat injury index” value [1, 7] was 56%, the “increase of PIABS” value [1, 7] was 134% and the “relative immunization effect (%)” value [4] was 51.72%. For the same compound, the “thousand grain weight” value [4] was 38.87 g, the “thousand grain weight (g)” value [4] was 38.87 ± 0.20 a g and the “effect on growth of Leuconostoc dextranicum” value [5] was “inhibited the growth”. The “effect on arthritis in rats” value [6] was “can alleviate arthritis”.
